Assay results: US20130109751A1, “LSD-1 ENZYME INHIBITORS FOR INDUCING OSTEOGENIC DIFFERENTIATION” ([…].R.L., priority 2011, published 2013)

How the values were obtained:
Assay type in all cases: cell-based, mice
[1] = test system: W20-17 cells; experiment: Alizarin Red staining of mineralised nodules under different growth conditions (minimum medium); conditions: 21 days, absence of dexamethasone and ascorbic acid, glycerol 2-phosphate necessary
Description: On the 21st day, the presence of mineralised matrix was evaluated by histochemical staining with Alizarin Red. The cells were washed with PBS, fixed with a 10% formaldehyde solution, and incubated with a 2% solution of Alizarin Red (pH 4.1-4.3) for one hour.
To evaluate the minimum composition of a medium capable of inducing the formation of mineralised matrix, W20-17 cells were seeded in a 96-well plate and cultured for 21 days under different growth conditions.
At the end of the treatment the cells were stained with Alizarin Red, as described in example 2, to evaluate the formation of mineralised nodules.

[2] = target: T1, LSD-1 (Mus musculus, UniProt Q6ZQ88); experiment: In vitro enzymatic activity assay of LSD-1 on W20-17 cells; conditions: osteogenic medium supplemented with compound, vs osteogenic medium
T1 construct: endogenous in cells; host or cells: W20-17 cells
Description: To evaluate whether the activity of enzyme LSD-1 is inhibited during osteogenic differentiation, an in vitro enzymatic activity assay was performed on W20-17 cells to assess the percentage inhibition of LSD-1 activity under different conditions.

[3] = test system: W20-17 cells; experiment: Expression profile of osteogenic markers by real-time PCR; conditions: osteogenic medium, 21 days' treatment, normalised to GAPDH, vs osteogenic medium alone

Compound | mineralisation (Alizarin Red, mineralised nodules) [1] | percentage inhibition of LSD-1 activity [2] | expression of late marker osteocalcin [3]
N[C@@H]1C[C@H]1c1ccccc1 (racemic) [tranylcypromine, reference compound] | promotes mineralisation |  | 
NC1CC1c1ccc(NC(=O)C(Cc2ccccc2)NC(=O)OCc2ccccc2)cc1 (stereo not shown) [MC2580] | promotes mineralisation | percentage inhibition increases | most marked
